Source: publication PMC8587849, “Antimicrobial and Anticancer Application of Silver(I) Dipeptide Complexes” (Molecules, 2021)
Several values for one entry are separate records, joined by “and”; a condition that tells them apart may be missing. Equal entries are not always repeated. Where two headings read alike, the source gives them in different places.

Experiments:
[1] = test system: Candida parapsilosis ATCC 22019; assay: Antifungal activity (yeast), macrodilution method; type: cell-based; conditions: C. parapsilosis
Experimental: (§4) Cultures of bacteria (in Mueller-Hinton broth, MHB) and yeasts (in Sabouraud’s growth medium, SB) were incubated under shaking (250 rpm) at 37 °C. The growth of bacteria and yeasts was evaluated by measuring the absorbance of the growing cultures (A550) until the cultures reached the stationary growth phase. […] The final concentration of DMSO never exceeded 1.0 vol. % in the control or treated samples. […] The IC50 and MIC90 with respect to MIC80 values were evaluated from toxicity curves.

[2] = test system: Alternaria alternata CCM F-128; assay: Antifungal activity (filamentous fungi), macrodilution on solidified PDA; type: cell-based; conditions: A. alternata; for IC50: read-out: IC50; for MIC100: suffix s = fungistatic
Experimental: (§5) Cultures of bacteria (in Mueller-Hinton broth, MHB) and yeasts (in Sabouraud’s growth medium, SB) were incubated under shaking (250 rpm) at 37 °C. The growth of bacteria and yeasts was evaluated by measuring the absorbance of the growing cultures (A550) until the cultures reached the stationary growth phase. […] During culturing, the diameters of growing fungal colonies were measured at regular intervals [71, 72]. […] The final concentration of DMSO never exceeded 1.0 vol. % in the control or treated samples. […] The IC50 and MIC90 with respect to MIC80 values were evaluated from toxicity curves.

[3] = test system: MCF-7; assay: MTS antiproliferative assay; type: cell-based, human; conditions: 72 h
Experimental: (§1) After 72 h of incubation, 10 µL of MTS was added to each well. […] IC50 values were calculated from MTS analyses.

[4] = test system: HeLa; assay: MTS antiproliferative assay; type: cell-based, human; conditions: 72 h
Experimental: as §1

[5] = test system: S. aureus biofilm; assay: Influence on S. aureus biofilm formation, crystal violet staining; type: cell-based; conditions: for A570 (biofilm, crystal violet): control A570 = 0.47; for I: biofilm intensity: control strong
Experimental: The biofilm was qualified by the crystal violet staining method. Briefly, overnight cultures of bacteria S.aureus (in MHB) and yeasts C.parapsislosis (in SB) were prepared. The fresh prepared growth media MHB and SB were inoculated with the overnight culture for a final concentration of 5 × 10^6 cells mL^−1. The microbial biofilm was formed in 96-well microplates for adherent cells. […] Prepared cultures were incubated for 2 h at 37 °C. […] The treatment with DMSO (solvent) alone served as a control. The inoculated microplates were incubated at 37 °C for the next 46 h. […] Microplates with mature biofilm were decanted and washed using 200 μL of saline solution. The plate was left for 15 min to dry completely at laboratory temperature. Then, 110 μL of 0.4% crystal violet dye was added to each well, and the plate was incubated for 15 min at laboratory temperature. After the decantation, the plate was washed 3 times with 200 μL of saline solution. Then, 200 μL of 96% ethanol was added. The microplate was left to incubate for 15 min at laboratory temperature. After the transfer of the well content to a clean microplate, the absorbance (570 nm) of released crystal violet (proportionate to biofilm cell density) was measured,, and the values were evaluated as weak biofilm formation A570 <0.1; 0.199>, medium biofilm formation A570 <0.2; 0.3>, strong biofilm formation A570 <0.301; 0.999>, or very strong biofilm formation A570 ≥ 1.00.

[6] = test system: CT DNA–HO system; assay: Fluorescence competitive binding with Hoechst 33258; design: species or system calf; conditions: displacement of Hoechst 33258 from CT DNA; 462 nm; 10 mM Tris-HCl pH 7.4
Experimental: The fluorescence competitive binding studies of silver(I) complexes with Hoechst 33 258 (HO) were performed on a Varian Cary Eclipse spectrophotometer. The emission spectra of DNA–HO were measured in the range of 400–550 nm using an excitation wavelength of 343 nm with a slit width of 5 nm for the excitation and 5 nm for the emission beam. […] Ksv quenching constant was determined according to the classical Stern-Volmer Equation (1) in [63, 75]:F0/F = 1 + KSV [Q](1) where F0 and F are the fluorescence intensities in the absence and the presence of the quencher at 462 nm, KSV is the Stern-Volmer quenching constant and [Q] is the concentration of the quencher.

[7] = test system: A.flavus; assay: Antifungal activity (filamentous fungi); type: cell-based; conditions: read-out: IC50 and MIC100 (class symbol)
Experimental: as §5

[8] = test system: Escherichia coli (E. coli) CCM 3988; assay: Antibacterial activity, macrodilution method; type: cell-based
Experimental: as §4

[9] = test system: Rhizopus oryzae CCM F-8284; assay: Antifungal activity (filamentous fungi), macrodilution on solidified PDA; type: cell-based; conditions: for IC50: read-out: IC50; for MIC100: suffix s = fungistatic
Experimental: as §5

[10] = test system: BJ-5ta; assay: MTS assay on fibroblasts; type: cell-based; conditions: BJ-5ta human skin fibroblasts, 72 h
Experimental: as §1

[11] = test system: Staphylococcus aureus CCM 3953; assay: Antibacterial activity, macrodilution method; type: cell-based; conditions: S. aureus
Experimental: as §4

[12] = test system: Microsporum gypseum CCM F-8342; assay: Antifungal activity (filamentous fungi), macrodilution on solidified PDA; type: cell-based; conditions: M.gypseum
Experimental: as §5

[13] = test system: Candida albicans SC 5314; assay: Antifungal activity (yeast), macrodilution method; type: cell-based; conditions: C. albicans
Experimental: as §5

[14] = test system: methicillin-resistant Staphylococcus aureus L12; assay: Antibacterial activity, macrodilution method; type: cell-based; conditions: S. aureus L12 (MRSA)
Experimental: as §4

[15] = test system: HCT116 cells; assay: Cell cycle analysis by flow cytometry; type: cell-based, human; conditions: treated with IC50
Experimental: (§2) Prior to each analysis, cells were washed in PBS, followed by resuspending in staining solution (0.5 mg/mL ribonuclease A, 0.2% final concentration Triton X-100, propidium iodide 0.025 mg/mL in 500 µL PBS) (all Sigma Aldrich), and incubated for 30 min at room temperature in the dark. For analysis of stained cells, a BD FACSCalibur flow cytometer (BD Bio-sciences) was used. A minimum of 1 × 10^4 events were analysed per analysis.

[16] = test system: Jurkat cells; assay: Cell cycle analysis by flow cytometry; type: cell-based, human; conditions: treated with IC50
Experimental: as §2

[17] = test system: MDA-MB-231 cells; assay: Cell cycle analysis by flow cytometry; type: cell-based, human; conditions: treated with IC50
Experimental: as §2

[18] = test system: BLM cells; assay: Cell cycle analysis by flow cytometry; type: cell-based, human; conditions: treated with IC50
Experimental: as §2

[19] = test system: BLM; assay: MTS antiproliferative assay; type: cell-based, human; conditions: for IC50: BLM, MTS, 72 h
Experimental: (§3) Cells were maintained in standard conditions with an atmosphere containing 5% CO2 at 37 °C.
as §1

[20] = test system: Jurkat; assay: MTS antiproliferative assay; type: cell-based, human; conditions: 72 h
Experimental: as §3, §1

[21] = test system: MDA-MB-231; assay: MTS antiproliferative assay; type: cell-based, human; conditions: 72 h
Experimental: as §3, §1

[22] = test system: HCT116; assay: MTS antiproliferative assay; type: cell-based, human; conditions: 72 h
Experimental: as §3, §1

[23] = test system: CT DNA; assay: UV-Vis absorption titration with CT DNA; type: binding, calf; conditions: 0.01 M Tris-HCl pH 7.4; complex 7.85 × 10^−5 M
Experimental: UV–vis spectra were measured in 0.01 M Tris-HCl buffer (pH 7.4) using a Varian Cary 100 Bio spectrophotometer in the range of 230–320 nm and recorded at room temperature (24 °C) using a quartz cuvette of 1 cm path length. The concentration of investigated Ag(I) complexes was 7.85 × 10^−5 M. During the titration, an aliquot of buffered CT DNA solution was added to each cuvette (sample and reference) to eliminate the absorbance of DNA itself. The DNA concentration per nucleotide was determined by absorption spectroscopy using the molar absorption coefficient (6600 M^−1cm^−1) at 260 nm.

[24] = test system: Staphylococcus epidermidis CCM 7221; assay: Antibacterial activity, macrodilution method; type: cell-based; conditions: S.epidermidis
Experimental: as §4

[Ag2(GlyAla)(NO3)2]n [AgGlyAla]
IC50 [1]: 30 µM
MIC80 [1]: 60 µmol/L
IC50 [2]: 42 µM
MIC100 [2]: > 100 µmol/L
IC50 [3]: 7.5 µM
IC50 [4]: 33.2 µM
A570 (biofilm, crystal violet) ([5]; complex concentration 5 µM): 0.51
I: biofilm intensity ([5]; complex concentration 5 µM): strong (strong biofilm formation A570 <0.301; 0.999>)
A570 (biofilm, crystal violet) ([5]; complex concentration 10 µM): 0.41
I: biofilm intensity ([5]; complex concentration 10 µM): strong (strong biofilm formation A570 <0.301; 0.999>)
A570 (biofilm, crystal violet) ([5]; complex concentration 25 µM): 0.25
A570 (biofilm, crystal violet) ([5]; complex concentration 50 µM): 0.23
A570 (biofilm, crystal violet) ([5]; complex concentration 100 µM): 0.25
I: biofilm intensity ([5]; complex concentration 100 µM): medium (medium biofilm formation A570 <0.2; 0.3>)
KSV (Stern-Volmer quenching constant) [6]: 7.97 ± 0.03 × 10^4 M^−1
IC50 [7]: > 100 µM
IC50 [8]: 6 µM
MIC90 [8]: 9 µmol/L
IC50 [9]: 30 µM
MIC100 [9]: 50 µmol/L
IC50 [10]: 40.2 µM
IC50 [11]: 7 µM
MIC90 [11]: 11 µmol/L
IC50 ([12]; read-out: IC50): 75 µM
MIC100 ([12]; suffix s = fungistatic): 100 µmol/L
IC50 [13]: 50 µM
MIC80 [13]: 87 µmol/L
IC50 [14]: 9 µM
MIC90 [14]: 20 µmol/L
cells in G2/M ([15]; 48 h): 14.0 ± 0.4%
cells in S ([15]; 48 h): 7.0 ± 0.3%
cells in G2/M ([15]; 72 h): 7.6 ± 1.7%
cells in S ([15]; 72 h): 8.1 ± 1.2%
cells in G2/M ([16]; 48 h): 17.9 ± 1.8%
cells in S ([16]; 48 h): 12.6 ± 0.5%
cells in G2/M ([16]; 72 h): 10.3 ± 3.1%
cells in S ([16]; 72 h): 12.1 ± 1.8%
cells in G2/M ([17]; 24 h): 22.8 ± 2.5% and 22.8%
cells in S ([17]; 24 h): 11.2 ± 2.0%
cells in G2/M ([17]; 48 h): 19.4 ± 0.1%
cells in S ([17]; 48 h): 11.1 ± 0.7%
cells in G2/M ([18]; 48 h): 28.9 ± 2.7%
cells in S ([18]; 48 h): 19.5 ± 0.1%
cells in G2/M ([18]; 72 h): 27.3 ± 1.3%
cells in S ([18]; 72 h): 18.8 ± 0.4%
IC50 [19]: 10.9 µM
Selectivity index (SI) ([19]; ratio of IC50 values BJ-5ta/BLM): 3.7
IC50 [20]: 9.7 µM
IC50 [21]: 7.4 µM
IC50 [22]: 28 µM
Hypochromism [23]: 40.7%
Δλmax (red shift on addition of CT DNA) [23]: 9 nm
IC50 [24]: 8 µM
MIC90 [24]: 10 µmol/L

[Ag2(HGlyAsp)(NO3)]n [AgGlyAsp]
IC50 [1]: 50 µM
MIC80 [1]: 100 µmol/L
IC50 [2]: 35 µM
MIC100 [2]: > 100 µmol/L
IC50 [3]: 33.8 µM
IC50 [4]: 33.3 µM
A570 (biofilm, crystal violet) ([5]; complex concentration 5 µM): 0.36
I: biofilm intensity ([5]; complex concentration 5 µM): strong (strong biofilm formation A570 <0.301; 0.999>)
A570 (biofilm, crystal violet) ([5]; complex concentration 10 µM): 0.35
I: biofilm intensity ([5]; complex concentration 10 µM): strong (strong biofilm formation A570 <0.301; 0.999>)
A570 (biofilm, crystal violet) ([5]; complex concentration 50 µM): 0.24
A570 (biofilm, crystal violet) ([5]; complex concentration 100 µM): 0.25
I: biofilm intensity ([5]; complex concentration 100 µM): medium (medium biofilm formation A570 <0.2; 0.3>)
KSV (Stern-Volmer quenching constant) [6]: 8.33 ± 0.07 × 10^4 M^−1
IC50 [7]: > 100 µM
IC50 [8]: 17 µM
MIC90 [8]: 23 µmol/L
IC50 [9]: 73 µM
MIC100 [9]: 100 µmol/L
IC50 [10]: 57.6 µM
IC50 [11]: 51 µM
MIC90 [11]: 96 µmol/L
IC50 ([12]; read-out: IC50 and MIC100 (class symbol)): > 100 µM
IC50 [13]: 73 µM
MIC80 [13]: 100 µmol/L
IC50 [14]: 31 µM
MIC90 [14]: 49 µmol/L
cells in G2/M ([15]; 24 h): 16.8 ± 2.4%
cells in S ([15]; 24 h): 16.3 ± 2.3%
cells in G2/M ([15]; 48 h): 11.7 ± 3.4%
cells in S ([15]; 48 h): 10.3 ± 1.3%
cells in G2/M ([16]; 24 h): 15.5 ± 2.7%
cells in S ([16]; 24 h): 14.0 ± 0.6%
cells in G2/M ([16]; 48 h): 6.3 ± 0.3%
cells in S ([16]; 48 h): 12.4 ± 1.1%
cells in G2/M ([17]; 24 h): 30.6%
cells in G2/M ([17]; 48 h): 25.8 ± 0.5%
cells in S ([17]; 48 h): 10.6 ± 1.9%
cells in G2/M ([17]; 72 h): 9.6 ± 1.2%
cells in S ([17]; 72 h): 7.1 ± 2.4%
cells in G2/M ([18]; 24 h): 14.8 ± 0.2%
cells in S ([18]; 24 h): 13.8 ± 3.0%
cells in Sub-G0 ([18]; 24 h): 51.7%
cells in G2/M ([18]; 48 h): 10.9 ± 2.8%
cells in S ([18]; 48 h): 10.8 ± 2.5%
cells in Sub-G0 ([18]; 48 h): 56.1%
cells in Sub-G0 ([18]; 72 h): 59.3%
IC50 [19]: 35.6 µM
IC50 [20]: 36.8 µM
IC50 [21]: 33.6 µM
IC50 [22]: 35.5 µM
Hypochromism [23]: 30% and 30.8%
Δλmax (red shift on addition of CT DNA) [23]: 13 nm
IC50 [24]: 25 µM
MIC90 [24]: 50 µmol/L
